Patent publication US11267815B2, “Class of amino-substituted nitrogen-containing fused ring compounds, preparation method therefor, and use thereof” (SHANGHAI RINGENE BIOPHARMA CO., LTD., priority 2017, dated 2022)
Where two headings read alike, the source gives them in different places.

Assays:
FGFR1 = FGFR1 (Homo sapiens (Human), UniProt P11362); assay: Inhibitory activity on kinase FGFR1 (Caliper mobility shift); format: biochemical
Description: (1). Preparation of 1×Kinase buffer; (2) Preparation of the gradient concentrations of the compounds: the concentration of the compounds to be tested started from 10 μM, which was 3-fold diluted to prepare 10 dilutions, and then tested in duplicated wells. The compounds were 100-fold serially diluted into 10 dilutions with different final concentrations in 96-well plates, each of which was further diluted with 1×Kinase buffer to prepare an intermediate dilution having a concentration of 5 times the final concentration; (3) adding 5 μL of each of the prepared compound solution into the compound wells of 384-well plates, and each concentration set single well; adding 5 μL of 5% DMSO into negative control wells and positive control wells respectively; (4) preparing a kinase solution having a concentration of 2.5 times the final concentration with 1×kinase buffer; (5) adding 10 μL of kinase solution at a concentration of 2.5 times the final concentration into the compound wells and the positive control wells respectively; and adding 10 μL of 1×Kinase buffer into the negative control wells; (6) centrifuging at 1000 rpm for 30 seconds, and incubating at room temperature for 10 minutes after shaking and mixing evenly; (7) preparing a mixed solution of ATP and Kinase substrate 22 having a concentration of 2.5 times the final concentration with 1×Kinase Buffer; (8) adding 10 μL of the mixed solution of ATP and substrate at a concentration of 2.5 times the final concentration to initiate the reaction; (9) Centrifuging the 384-well plates at 1000 rpm for 30 seconds, and incubating at 28° C. for corresponding time respectively after shaking and mixing; (10) adding 30 μL of stop detection solution to stop the kinase reaction, centrifuging at 1000 rpm for 30 seconds, and shaking and mixing the mixture evenly; (11) reading the conversion rate by Caliper Ezreader II. The dose-effect curve was fitted by the log (inhibitor) vs. response-variable slope of GraphPad Prism 5 with the log value of concentration as the X axis and the percentage inhibition rate as the Y axis, then the IC50 value of each compound on the enzyme activity was obtained.

[1] = test system: EGFR, VEGFR, PDGFR, FGFR, RET, MET, Src, Lyn, Syk, MEK, CDK, RA, ROS; assay: Inhibitory activities on different kinases (selectivity); format: biochemical; conditions: versus different kinases
Description: The inhibitory activities of the compounds of the present disclosure on different kinases such as EGFR, VEGFR, PDGFR, FGFR, RET, MET, Src, Lyn, Syk, MEK, CDK, RA, ROS, etc., were also determined.

xenograft tumors = assay: Xenograft tumor growth in nude mice; format: in vivo; conditions: oral, daily for three weeks, lower dose (even less than 20 mg/kg)
Description: 1. The tumor tissue in vigorous growth period was cut into about 1.5 mm^3, and subcutaneously inoculated into the right armpit of nude mice under sterile condition. The diameter of the subcutaneous transplanted tumors in nude mice was measured with vernier caliper, and the animals were randomly divided into groups when the average volume of the tumor reached about 130 mm^3. The embodiment compounds (prepared to the desired concentration with water for injection containing 1% Tween 80 for later use) were orally administered at a predetermined dose every day for three weeks, while a same amount of menstruum was administered in the menstruum control group. During the whole experiment, the diameter of the xenograft tumor was measured twice a week and the weight of the mice was weighed at the same time. The tumor volume (TV) was calculated by the formula: TV=½×a×b^2, where a and b represent length and width respectively. According to the measured results, the relative tumor volume (RTV) was calculated by the formula: RTV=Vt/V0, where V0 was the tumor volume measured when the mice were divided into cages for administration (i.e., d0) and Vt was the tumor volume at each measurement. […]

[2] = Pharmacokinetics in rats or mice after intragastric and intravenous administration; format: in vivo, SD rats or BALB/c mice; conditions: iv 3 mg/kg, intragastric 10 mg/kg
Description: (3) LC/MS/MS method was used to measure the drug concentration in plasma at different time points after the embodiment compounds were administered to the rats or mice by intragastric administration and intravenous injection respectively, so as to study the pharmacokinetic behavior of the compounds of the present disclosure in rats or mice and evaluate the pharmacokinetic characteristics thereof. […]

FGFR1, sequence (P11362 22-822): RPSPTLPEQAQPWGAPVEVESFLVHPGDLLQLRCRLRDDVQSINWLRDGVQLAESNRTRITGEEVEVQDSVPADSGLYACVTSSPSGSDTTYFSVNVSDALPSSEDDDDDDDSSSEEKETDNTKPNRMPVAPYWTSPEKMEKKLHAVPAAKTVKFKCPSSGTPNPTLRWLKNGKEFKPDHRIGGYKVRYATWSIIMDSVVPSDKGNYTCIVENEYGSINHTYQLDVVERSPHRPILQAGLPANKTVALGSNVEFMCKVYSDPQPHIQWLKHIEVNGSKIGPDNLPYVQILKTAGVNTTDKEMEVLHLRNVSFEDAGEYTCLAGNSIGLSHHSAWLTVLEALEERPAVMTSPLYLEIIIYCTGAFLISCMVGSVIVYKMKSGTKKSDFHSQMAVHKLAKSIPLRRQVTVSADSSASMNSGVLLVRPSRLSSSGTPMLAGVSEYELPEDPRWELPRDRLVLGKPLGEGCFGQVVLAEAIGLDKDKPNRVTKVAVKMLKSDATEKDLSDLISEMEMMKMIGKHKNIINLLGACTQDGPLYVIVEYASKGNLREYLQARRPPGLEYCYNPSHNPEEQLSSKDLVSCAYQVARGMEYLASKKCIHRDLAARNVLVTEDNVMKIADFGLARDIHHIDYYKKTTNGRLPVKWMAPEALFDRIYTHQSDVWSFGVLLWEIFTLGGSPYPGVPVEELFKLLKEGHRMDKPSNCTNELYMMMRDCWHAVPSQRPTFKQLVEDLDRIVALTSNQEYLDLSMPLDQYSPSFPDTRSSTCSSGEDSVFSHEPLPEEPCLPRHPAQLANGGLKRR

- IC50 (FGFR1; read-out: FGFR1 IC50): < 20 nM
- IC50 (FGFR1; read-out: IC50 of inhibitory activity on FGFR1): < 1 nM
- kinase selectivity [1]: greater than 100 times
SMILES: C=CC(=O)N1CCN(CCCc2cn3c(n2)c(-c2c(Cl)c(OC)cc(OC)c2Cl)cc2cnc(NC)nc23)CC1 [Embodiment 3, 1-(4-(3-(6-(2,6-dichloro-3,5-dimethoxyaniline)-2-(methylamine)imidazo[1′,2′:1,6]pyrido[2,3-d]pyrimidin-8-yl)propyl)piperazine-1-yl)prop-2-en-1-one]
- anti-tumor rate (xenograft tumors): more than 80%
- absorption and metabolism properties in rats and mice [2]: good absorption and metabolism properties in rats and mice
